Assay results published in ChEMBL document CHEMBL1201862, “PubChem BioAssay data set” (2004).
Active and inactive are the calls of the source.

Columns and labels:
[1] = microbe, parasite or virus in culture; format: functional; conditions: Mycobacterium tuberculosis
[2] = viability of PTEN-deleted HCT116 cells – cell-based, HCT116 PTEN knockout, dose response (AID 1047); format: functional;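 note: HCT116 colon tumor cells with PTEN knocked out; cells exposed to compound for 60 hours before readout; potency for loss of cell viability measured by luminescence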
[3] = viability of HCT116 lacking mutant beta-catenin – cell-based, human colon tumor, dose response (AID 1045); format: functional;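 note: HCT116 colon tumor cells with beta catenin knocked out; cells exposed to compound for 60 hours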
[4] = cells; format: functional
[5] = molecular target: Luciferin 4-monooxygenase (Photinus pyralis, UniProt P08659); experiment: inhibition of purified Photinus pyralis luciferase – biochemical, luminescence, dose response (AID 1891)
Chain of Luciferin 4-monooxygenase (P08659 whole entry): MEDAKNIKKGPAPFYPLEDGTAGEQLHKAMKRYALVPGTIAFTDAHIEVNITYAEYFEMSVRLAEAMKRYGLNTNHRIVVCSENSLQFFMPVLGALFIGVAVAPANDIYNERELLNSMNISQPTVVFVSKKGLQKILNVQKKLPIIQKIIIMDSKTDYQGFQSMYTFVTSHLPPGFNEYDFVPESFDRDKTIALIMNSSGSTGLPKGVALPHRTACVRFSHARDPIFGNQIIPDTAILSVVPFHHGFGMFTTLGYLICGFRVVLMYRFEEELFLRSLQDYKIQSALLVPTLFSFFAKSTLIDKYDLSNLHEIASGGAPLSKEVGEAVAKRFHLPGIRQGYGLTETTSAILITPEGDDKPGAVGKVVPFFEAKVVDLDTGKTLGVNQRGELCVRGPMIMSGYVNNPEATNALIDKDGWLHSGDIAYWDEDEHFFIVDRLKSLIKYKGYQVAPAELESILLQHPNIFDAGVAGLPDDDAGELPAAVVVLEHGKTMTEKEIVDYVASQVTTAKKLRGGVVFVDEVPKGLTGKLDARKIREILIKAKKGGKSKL

[6] = Luminescence Cell-Based Dose Confirmation HTS to Identify Inhibitors of Platelet Dense Granule Release. [Related pubchem assays: 1663 (Primary HTS), 1678 (Summary of Project)]; format: functional
[7] = molecular target: Induced myeloid leukemia cell differentiation protein Mcl-1 (Homo sapiens, UniProt Q07820); format: functional
Chain of Induced myeloid leukemia cell differentiation protein Mcl-1 (Q07820 whole entry): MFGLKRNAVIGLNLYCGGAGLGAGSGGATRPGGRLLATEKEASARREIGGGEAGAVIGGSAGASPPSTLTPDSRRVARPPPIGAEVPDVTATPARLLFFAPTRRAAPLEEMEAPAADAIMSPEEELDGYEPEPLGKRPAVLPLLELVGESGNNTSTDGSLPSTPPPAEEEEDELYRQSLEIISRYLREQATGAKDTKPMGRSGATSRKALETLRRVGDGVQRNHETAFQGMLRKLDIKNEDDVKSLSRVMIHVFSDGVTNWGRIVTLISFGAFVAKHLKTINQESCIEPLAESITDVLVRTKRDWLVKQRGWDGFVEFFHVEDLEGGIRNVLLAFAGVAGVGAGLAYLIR

[8] = cells; format: functional, cell-based
[9] = cells; format: functional, cell-based; remark: listed apart in the source
[10] = molecular target: T1, Cytochrome P450 1A2 (Homo sapiens, UniProt P05177);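 note: PubChem cytochrome P450 panel assay, CYP1A2 panel member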
T1 sequence (P05177 whole entry): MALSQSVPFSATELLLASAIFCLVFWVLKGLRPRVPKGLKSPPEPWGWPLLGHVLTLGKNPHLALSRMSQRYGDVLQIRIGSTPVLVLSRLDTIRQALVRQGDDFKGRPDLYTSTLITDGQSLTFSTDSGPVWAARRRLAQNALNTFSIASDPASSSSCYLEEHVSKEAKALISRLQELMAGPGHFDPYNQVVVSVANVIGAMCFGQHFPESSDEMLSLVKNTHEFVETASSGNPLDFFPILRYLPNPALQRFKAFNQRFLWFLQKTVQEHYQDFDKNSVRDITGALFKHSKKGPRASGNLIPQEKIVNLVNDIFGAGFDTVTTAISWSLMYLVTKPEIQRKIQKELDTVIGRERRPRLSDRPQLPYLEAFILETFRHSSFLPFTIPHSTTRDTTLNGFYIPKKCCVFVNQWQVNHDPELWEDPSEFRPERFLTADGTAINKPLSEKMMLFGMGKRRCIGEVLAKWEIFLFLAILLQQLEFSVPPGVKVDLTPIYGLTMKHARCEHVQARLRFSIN

[11] = molecular target: T2, Carboxy-terminal domain RNA polymerase II polypeptide A small phosphatase 1 (Homo sapiens, UniProt Q9GZU7); experiment: CTDSP1 inhibitors, concentration-response, biochemical, absorbance readout, ultra-high-throughput screen actives (AID 540297); format: functional
T2 sequence (Q9GZU7 whole entry): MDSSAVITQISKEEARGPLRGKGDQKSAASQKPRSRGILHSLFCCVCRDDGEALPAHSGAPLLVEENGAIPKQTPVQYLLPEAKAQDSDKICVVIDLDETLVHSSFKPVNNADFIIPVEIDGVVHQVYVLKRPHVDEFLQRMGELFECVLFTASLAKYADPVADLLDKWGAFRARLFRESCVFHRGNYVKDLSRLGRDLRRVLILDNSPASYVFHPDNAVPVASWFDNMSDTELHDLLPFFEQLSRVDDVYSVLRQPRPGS

[12] = blockers of bursicon-stimulated LGR2 cAMP reporter – cell-based, HEK293, CRE-luciferase reporter, cherry pick, set 2, dose response (AID 743343); format: functional;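 note: transfected cells were stimulated with diluted bursicon conditioned medium after compound addition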
[13] = blockade of melanocortin 4 receptor signaling – cell-based, plate reader, cherry pick, counter-screen for LGR2 antagonist project, dose response (AID 743444); format: functional;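 note: transfected HEK 293 cells stimulated with alpha-MSH peptide; potency of inhibitors of the alpha-MSH evoked signal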
[14] = A549 cell cytotoxicity, dose response, cytotoxicity control, plate reader, cherry-pick, antagonist series (AID 743412); format: functional, cell-based
[15] = Luminescence Cell-Based Dose Retest to Confirm Inhibitors of Cancer Stem Cells. [Related pubchem assays (depositor defined):AID2717, AID2721]; format: functional; conditions: Homo sapiens
[16] = fluconazole-exposed Candida albicans growth modulators – fluorescence, retest, confirmation (AID 2467); format: functional, cell-based
[17] = NIH-3T3 fibroblast cytotoxicity, dose response, cytotoxicity control, cell-based, fluorescence, Alamar Blue, secondary assay (AID 2327); format: functional;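 note: NIH-3T3 mouse fibroblasts cultured with fluconazole at 8 µg/mL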
[18] = molecular target: Cytochrome P450 2C9 (Homo sapiens, UniProt P11712)
Chain of Cytochrome P450 2C9 (P11712 whole entry): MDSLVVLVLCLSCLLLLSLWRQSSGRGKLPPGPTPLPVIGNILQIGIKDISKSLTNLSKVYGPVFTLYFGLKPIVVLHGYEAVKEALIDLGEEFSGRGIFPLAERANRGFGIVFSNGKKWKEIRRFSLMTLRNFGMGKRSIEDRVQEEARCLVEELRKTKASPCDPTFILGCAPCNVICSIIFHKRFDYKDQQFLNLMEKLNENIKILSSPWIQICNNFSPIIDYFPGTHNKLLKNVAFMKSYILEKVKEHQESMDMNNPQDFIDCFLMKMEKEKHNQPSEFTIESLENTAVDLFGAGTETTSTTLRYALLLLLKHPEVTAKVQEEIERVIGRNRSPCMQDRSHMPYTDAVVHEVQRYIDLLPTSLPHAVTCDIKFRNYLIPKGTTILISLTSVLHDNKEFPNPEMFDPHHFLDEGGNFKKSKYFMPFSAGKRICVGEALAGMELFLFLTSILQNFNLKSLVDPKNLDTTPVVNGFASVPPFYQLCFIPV

[19] = molecular target: Cytochrome P450 3A4 (Homo sapiens, UniProt P08684);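 note: CYP3A4 tested as one member of a cytochrome P450 panel screen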
Chain of Cytochrome P450 3A4 (P08684 whole entry): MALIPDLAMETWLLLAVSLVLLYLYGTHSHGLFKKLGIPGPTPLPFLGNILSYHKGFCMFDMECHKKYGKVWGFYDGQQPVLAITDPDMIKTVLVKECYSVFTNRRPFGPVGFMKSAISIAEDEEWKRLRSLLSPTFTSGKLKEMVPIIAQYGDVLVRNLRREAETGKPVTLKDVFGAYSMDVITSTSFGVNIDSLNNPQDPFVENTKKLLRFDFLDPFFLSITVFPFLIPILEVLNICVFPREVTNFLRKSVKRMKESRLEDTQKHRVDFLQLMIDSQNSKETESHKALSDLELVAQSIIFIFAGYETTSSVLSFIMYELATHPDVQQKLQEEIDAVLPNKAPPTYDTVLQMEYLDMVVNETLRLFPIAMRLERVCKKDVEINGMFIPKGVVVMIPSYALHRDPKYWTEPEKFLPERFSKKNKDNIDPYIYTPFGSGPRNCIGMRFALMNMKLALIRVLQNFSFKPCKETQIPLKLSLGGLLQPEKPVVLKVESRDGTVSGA

[20] = alpha-synuclein stem-loop luciferase translation blockers – H4 neuroglioma cells, luminescence, confirmation (AID 1988); format: functional, cell-based
[21] = Luminescence Cell-Based Dose Response HTS to Identify Inhibitors of 5'UTR Stem-Loop Driven Prion Protein mRNA Translation in H4 Neuroglioblastoma Cells. [Related pubchem assays: 1827 (Project Summary), 1813 (Primary HTS)]; format: functional
[22] = luciferase reporter signal suppression in cells – H4 neuroglioma cells, luminescence, dose response (AID 1990); format: functional, cell-based
[23] = NIH3T3 cell viability loss – ATP luminescence, mouse fibroblasts, counter-screen, dose response (AID 2010); format: functional, cell-based;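 note: cells exposed to compound for about 90 hours before reading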
[24] = Trypanosoma cruzi growth suppression in host cells – NIH3T3 host cells, beta-gal luminescence, confirmation (AID 2044); format: functional, cell-based;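 note: intracellular parasites grown in NIH/3T3 mouse fibroblasts as host cells; luminescent beta-galactosidase reporter signal from transgenic T. cruzi replicating inside host cells; inhibitors lower the luminescence signal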
[25] = tested on: H9c2; experiment: cells; format: functional, cell-based; conditions: Rattus norvegicus, H9c2, Myocardium;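 note: confirmatory concentration-response retest of ultra-high-throughput screening hits for modulation of myocardial damage; cell death induced by hydrogen peroxide oxidative stress; compound pretreatment for 60 min then peroxide exposure for 2 h; potency is for protecting the cells against peroxide damage rather than for killing them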
[26] = tested on: P388/ADR; experiment: cells; format: functional; conditions: Mus musculus
[27] = tested on: SN12K1; experiment: cells; format: functional; conditions: Homo sapiens
[28] = HIV-1 AD8 envelope cell-cell fusion blockers – cherry-pick, dose response (AID 652062); format: functional, cell-based;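 note: luciferase signal from cell-cell fusion driven by HIV-1 clade B AD8 Env; potency is for inhibitors of fusion seen as a drop in luminescence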
[29] = molecular target: Cytochrome P450 2C19 (Homo sapiens, UniProt P33261); experiment: Cytochrome panel assay with activity outcomes. Panel member name: p450-cyp2c19 Compounds with AC50 equal or less than 10 uM are considered active; format: functional; conditions: read-out: AC50
Chain of Cytochrome P450 2C19 (P33261 whole entry): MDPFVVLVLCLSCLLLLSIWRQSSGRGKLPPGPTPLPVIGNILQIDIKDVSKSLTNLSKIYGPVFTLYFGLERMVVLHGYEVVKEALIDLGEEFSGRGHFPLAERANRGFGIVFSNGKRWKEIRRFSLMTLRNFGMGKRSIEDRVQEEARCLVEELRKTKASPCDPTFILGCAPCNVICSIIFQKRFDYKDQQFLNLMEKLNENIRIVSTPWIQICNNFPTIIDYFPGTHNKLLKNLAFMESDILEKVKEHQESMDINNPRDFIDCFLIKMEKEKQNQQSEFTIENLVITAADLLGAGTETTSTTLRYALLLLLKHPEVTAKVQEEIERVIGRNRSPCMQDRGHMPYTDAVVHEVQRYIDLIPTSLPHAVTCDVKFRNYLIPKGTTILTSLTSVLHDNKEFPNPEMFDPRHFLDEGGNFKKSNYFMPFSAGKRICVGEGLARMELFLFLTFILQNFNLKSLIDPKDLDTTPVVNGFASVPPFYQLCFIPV

## CCCCn1nc(C(=O)N[C@@H](CCSC)c2nc3ccccc3[nH]2)c2ccccc2c1=O
[1]
  CC50: > 40 µM (active)

## CC1CCN(Cc2c(O)ccc3c(O)c(-c4nc5ccccc5s4)c(=N)oc23)CC1
[2]
  EC50: 16.6 µM (active)
[3]
  EC50: 16.8 µM (active)

## Cc1ccc(CN2CC(C(=O)OCc3ccccc3Cl)CC2=O)cc1 (stereo not given)
[4]
  IC50: 7.41 µM (active)

## Cc1cccc(OCc2nnc(SCC(=O)Nc3ncc(C)s3)o2)c1
[5]
  EC50: > 112 µM (not active)
[6]
  EC50: > 112 µM (not active)

## CCOC(=O)COc1ccc(C(=O)NC2CCCCC2)cc1
[4]
  IC50: 7.69 µM (active)

## Cn1cc(NC(=O)CCl)cn1
[1]
  CC50: > 40 µM (active)

## CC(=O)NC1=C(NC2CCS(=O)(=O)C2)C(=O)c2ccccc2C1=O (stereo not given)
[7]
  IC50: 2.54 µM (active)

## CCNc1nc(Oc2ccc(=O)n(-c3ccccc3)n2)nc(N(C)C)n1
[5]
  EC50: > 112 µM (not active)
[6]
  EC50: > 112 µM (not active)

## O=C(CSc1nnc(C2CC2)n1-c1ccccc1)Nc1ccc(N2CCOCC2)cc1
[5]
  EC50: > 112 µM (not active)
[6]
  EC50: > 112 µM (not active)

## CCN(C(=O)CSc1nc[nH]n1)C1CCCCC1
[8]
  EC50: > 350 µM (not active)
[9]
  EC50: > 350 µM (not active)

## COc1ccc2c(c1)c(=O)oc1cc(OCC(=O)NC3CC3)ccc12
[2]
  EC50: 14.1 µM (active)
[3]
  EC50: 37.7 µM (active)

## COc1ccc([N+](=O)[O-])cc1C1NN=C(c2cccc3ccccc23)S1 (stereo not given)
[5]
  EC50: > 112 µM (not active)
[6]
  EC50: > 112 µM (not active)

## CC(=O)N1CCC2(CC1)CC(=O)c1cc(OCC(=O)N3CCN(C)CC3)ccc1O2
[10]
  AC50: 39.8 µM (inconclusive)

## O=C(COC(=O)c1ccc(S(=O)(=O)N2CCCCC2)cc1)NCc1ccco1
[11]
  IC50: 10.5 µM (active)

## COC(=O)C1CCN(C(=O)COC(=O)CNS(=O)(=O)c2ccc(SC)c([N+](=O)[O-])c2)CC1
[11]
  IC50: 13.5 µM (active)

## CN(C)c1cccc(C(=O)Nc2nc3ccccc3[nH]2)c1
[12]
  AC50: 6.18 µM (active)
[13]
  AC50: 5.96 µM (active)
[14]
  AC50: > 52 µM (inactive)

## COc1cc(NS(=O)(=O)c2ccc(N/C=C(\C#N)c3nc4cc(Cl)ccc4o3)cc2)nc(OC)n1
[15]
  AC50: 2.08 µM (active)
[2]
  EC50: 12.7 µM (active)
[3]
  EC50: 14.7 µM (active)

## O=C(C1CCC1)N1CCN(S(=O)(=O)c2ccc(Br)cc2Cl)CC1
[1]
  CC50: > 40 µM (active)

## CCc1c(C)nc2ccc(OC)cc2c1S
[7]
  IC50: 0.628 µM (active)

## O=C(c1ccc2c(c1)OCO2)N1CCC2(CC1)Oc1ccc(F)cc1C(=O)C21CC(c2cccnc2)=NO1 (stereo not given)
[16]
  EC50: 0.566 µM (inconclusive)
[17]
  EC50: 49.2 µM (active)

## O=C1CC(/C=C/c2ccc(Cl)cc2)=Nc2ccccc2N1
[1]
  CC50: 23.8 µM (active)

## CCOc1ccc2nc(N=C(S)N(C)C)sc2c1
[16]
  EC50: 2.33 µM (active)
[17]
  EC50: > 150 µM (inactive)

## Cn1cc(SCC(=O)Nc2nc3ccccc3s2)c2ccccc21
[5]
  EC50: > 112 µM (not active)
[6]
  EC50: > 112 µM (not active)

## CC1=C(C(N)=O)C(c2ccccn2)n2nc(SCc3ccccc3Cl)nc2N1 (stereo not given)
[10]
  AC50: 15.8 µM (inconclusive)
[18]
  AC50: 20 µM (inconclusive)

## COc1ccc(CNC(=O)/C=C\c2ccc3[nH]cc(CCN(C)C)c3c2)cc1
[10]
  AC50: 39.8 µM (inconclusive)

## O=C1NC(=O)N(CCC2=CCCCC2)C(=O)/C1=C(O)/C=C/c1ccc2c(c1)OCO2
[15]
  AC50: 1.37 µM (active)
[2]
  EC50: 17.1 µM (active)
[3]
  EC50: 15 µM (active)

## CC(C)Cc1nc(N2CCN(C(=O)c3ccccc3)CC2)c(C#N)c2c1CCC2
[10]
  AC50: 25.1 µM (inconclusive)

## Cc1cc(Cl)nc(NC(=O)CSc2ccc(Cl)cc2)n1
[10]
  AC50: 5.01 µM (inconclusive)

## N#C/C(=C\c1ccc[nH]1)C(=O)Nc1ccccc1[N+](=O)[O-]
[11]
  IC50: 7.3 µM (active)

## COc1ccc(C(=O)N2CCC[C@@]3(CCN(C(=O)NC(C)C)C3)C2)cc1
[10]
  AC50: 12.6 µM (inconclusive)
[19]
  AC50: 20 µM (inconclusive)

## COc1cnn(-c2ccc(Br)cc2)c(=O)c1SCc1ccccc1
[7]
  IC50: 3.25 µM (not active)

## O=C(NC1CCCCC1)C(c1cccs1)N(CCCN1CCOCC1)C(=O)c1ccc(-c2ccccc2)[nH]1 (stereo not given)
[1]
  CC50: > 40 µM (active)

## COc1ccc(NC(=O)c2cc(S(=O)(=O)N3CCOCC3)cn2C)c(OC)c1
[5]
  EC50: > 112 µM (not active)
[6]
  EC50: > 112 µM (not active)

## COc1ccc(/C=C(/NC(=O)c2ccccc2)c2nc3cc(Cl)ccc3[nH]2)cc1OC
[16]
  EC50: 4.44 µM (active)
[17]
  EC50: > 150 µM (inconclusive)

## CCCCn1c(CCC(=O)O)ccc1-c1cccs1
[5]
  EC50: > 112 µM (not active)
[6]
  EC50: > 112 µM (not active)

## C=CCOc1nc(-c2ccccc2Cl)nc2ccccc12
[20]
  EC50: 17.4 µM (active)
[21]
  EC50: > 120 µM (not active)
[22]
  EC50: 69.1 µM (active)
[8]
  EC50: > 350 µM (not active)
[9]
  EC50: > 350 µM (not active)

## CC(C)OC(=O)CCCCCN1C(=O)CSC1=S
[23]
  EC50: 8.46 µM (active)
[4]
  IC50: 6.29 µM (active)
[24]
  EC50: 4.77 µM (active)
[1]
  CC50: 31.3 µM (active)

## O=C(NCc1ccco1)C1Cc2ccccc2CN1S(=O)(=O)c1ccccc1F (stereo not given)
[11]
  IC50: 5.41 µM (active)

## CNC(=O)c1ccc(-c2sc3nc(N4CCOCC4)c4c(c3c2N)CCCC4)o1
[2]
  EC50: 23.5 µM (active)
[25]
  IC50: 14.2 µM (active)
[3]
  EC50: 24.6 µM (active)

## Cn1c(=O)c(Oc2ccc(Cl)cc2)c(O)c2ccccc21
[4]
  IC50: 3.7 µM (active)

## CCOc1ccc(C(C)=O)cc1N1C(=O)C2C3C=CC(C3)C2C1=O (stereo not given)
[11]
  IC50: 15.8 µM (active)

## CN(C)c1cccc(OC(=O)NCCCl)c1
[26]
  GI50: 31 µM (inactive)
[27]
  GI50: > 100 µM (inactive)

## CCc1cnc(N2[C@H](C#N)[C@H](c3ccc(C#Cc4ccccc4F)cc3)[C@H]2CO)s1
[28]
  AC50: 33.6 µM (active)

## COc1cc2c(cc1OC)C(c1ccc(N)cc1)=NNC(=O)C2
[10]
  AC50: 39.8 µM (inconclusive)
[29]
  AC50: 15.8 µM (inconclusive)
[18]
  AC50: 39.8 µM (inconclusive)

## Cc1cccc(OCC(=O)NCC(=O)N/N=C/c2cccnc2)c1
[8]
  EC50: > 350 µM (not active)
[9]
  EC50: > 350 µM (not active)

## CCOC(=O)c1cc(C(O)(C(=O)OC)C(F)(F)F)c(/N=C/N(C)C)o1 (stereo not given)
[7]
  IC50: < 0.4 µM (not active)
